Data taken from patent EP3329923A1, “THE POTENTIAL OF CRBN-INDEPENDENT IMID RESENSITIZATION BY EPIGENETIC THERAPY” (University of Copenhagen, priority 2016, dated 2018).

What was measured:
EZH2 = EZH2 over EZH1; cited from earlier work
JJN3 [1] = assay: Cell proliferation, XTT dye absorbance (IC50 of IMiDs); assay type: cell-based; details: Homo sapiens, JJN-3, 72 h, XTT absorbance 3 days after treatment with IMiDs
Description: (§1) A total of seven commercially available human myeloma cell lines (JJN3, OPM2, RPMI-8226, U266, NCI-H929, LP-1, KMS12-BM) were purchased from DSMZ (Leibniz Institute DSMZ-German Collection of Microorganisms and Cell Cultures, Braunschweig, Germany).
(§2) First, the present inventors tested the sensitivity of all HMCL to both lenalidomide and pomalidomide by generating dose-response curves and calculating the IC50 of both drugs for each cell line (given in tables below).

KMS12-BM [2] = assay: as above; assay type: cell-based; details: Homo sapiens, KMS-12-BM, 72 h, XTT absorbance 3 days after treatment with IMiDs
Description: as §1, §2

NCI-H929 = assay: as above; assay type: cell-based; details: Homo sapiens, 72 h, XTT absorbance 3 days after treatment with IMiDs
Description: as §1, §2

OPM2 = assay: as above; assay type: cell-based; details: Homo sapiens, OPM-2, 72 h, XTT absorbance 3 days after treatment with IMiDs
Description: as §1, §2

RPMI-8226 = assay: as above; assay type: cell-based; details: Homo sapiens, RPMI-8226, 72 h, XTT absorbance 3 days after treatment with IMiDs
Description: as §1, §2

U266 = assay: as above; assay type: cell-based; details: Homo sapiens, U-266, 72 h, XTT absorbance 3 days after treatment with IMiDs
Description: as §1, §2

[3] = test system: all IMiD-resistant cell lines; assay: Resensitization to IMiDs after 48 hours epidrug pretreatment, apoptosis and cell cycle assays; assay type: cell-based, human; details: epidrug pretreatment for 48 hours, then no treatment vs. 10 µM lenalidomide or pomalidomide; panobinostat as monotherapy or combined with 5-Azacytidine or EPZ-6438
CRBN = CRBN expression by qPCR after epidrug treatment; details: OPM2-LR and OPM2-PR, monotherapy and combination (Figure 13A)
OPM2-PR = assay: Apoptosis assay (Annexin V and PI), resensitization to IMiDs; details: epidrug treatment 48 hours, then 10 µM lenalidomide or 10 µM Pomalidomide for 3 days (Figure 11B)
Description: Cell proliferation (and IC50 for each cell line) was assessed by measuring 2,3-Bis-(2-Methoxy-4-Nitro-5-Sulfophenyl)-2H-Tetrazolium-5-Carboxanilide (XTT) dye absorbance 3 days after treatment with IMiDs. Cell apoptosis was evaluated using Annexin V and PI, with the analysis performed on a FACS-Calibur (BD Bioscience).

JJN3 [4] = assay: Apoptosis assay, epigenetic sensitization in intrinsic IMiD resistance; details: JJN3, baseline IMiD resistance (Figure 13C)
Description: (§3) Cell apoptosis was evaluated using Annexin V and PI, with the analysis performed on a FACS-Calibur (BD Bioscience).
(§4) The present inventors then went on to examine whether the combination of epidrugs was effective in intrinsically IMiD-resistant cell lines.

KMS12-BM [5] = assay: as above; details: baseline IMiD resistance (Figure 13C)
Description: as §3, §4

IC50 (NCI-H929) [µM]	IC50 (RPMI-8226) [µM]	IC50 (U266) [µM]	Structure (SMILES)	IC50 (JJN3 [1]) [µM]	IC50 (KMS12-BM [2]) [µM]	IC50 (OPM2) [µM]	resensitization to IMiDs (IMiD sensitivity) [3]	expression of CRBN (CRBN)	also measured
–	–	–	Cc1cc(C)c(CNC(=O)c2cc(-c3ccc(CN4CCOCC4)cc3)cc3c2cnn3C2CCCC2)c(=O)[nH]1 [EPZ005687]	–	–	–	–	–	selectivity for EZH2 compared to EZH1 (EZH2): 50 fold
0.563	118	68.1	Nc1cccc2c1CN(C1CCC(=O)NC1=O)C2=O (centres unmarked) [Lenalidomide]	136	20.8	5.01	–	–	–
–	–	–	Nc1ncn([C@@H]2O[C@H](CO)[C@@H](O)[C@H]2O)c(=O)n1 [5-Azacytidine, 4-amino-1-beta-D-ribofuranosyl-1,3,5-triazin-2(1H)-one]	–	–	–	did not restore IMiD sensitivity	remained low and unchanged	–
0.003	98.3	60.5	Nc1cccc2c1C(=O)N(C1CCC(=O)NC1=O)C2=O (centres unmarked) [Pomalidomide]	87.3	15.2	2.01	–	–	–
–	–	–	CCN(c1cc(-c2ccc(CN3CCOCC3)cc2)cc(C(=O)NCc2c(C)cc(C)[nH]c2=O)c1C)C1CCOCC1 [EPZ-6438, N-((4,6-dimethyl-2-oxo-1,2-dihydropyridin-3-yl)methyl)-5-(ethyl(tetrahydro-2H-pyran-4-yl)amino)-4-methyl-4'-(morpholinomethyl)-[1,1'-biphenyl]-3-carboxamide]	–	–	–	did not restore IMiD sensitivity	remained low and unchanged	resensitization to lenalidomide and pomalidomide (apoptosis) (OPM2-PR): minor resensitization effect; sensitization to lenalidomide and pomalidomide (JJN3 [4]): able to render the cells sensitive to both lenalidomide and pomalidomide; sensitization to lenalidomide and pomalidomide (KMS12-BM [5]): able to render the cells sensitive to both lenalidomide and pomalidomide
